Among the data in PubChem BioAssay AID330 (DTP/NCI, 2004) are T/C values, retold here.

This experiment concerns P388 leukemia ip, CD2F1 mice, survival T/C. Briefly: NCI In Vivo Anticancer Drug Screen. Data for tumor model P388 Leukemia (intraperitoneal) in CD2F1 (CDF1) mice. As to conditions: endpoint: median survival time, higher = longer survival. In outline: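 Mice carrying the transplanted tumor received test compound or vehicle. Survival was recorded in each group, and the value is the treated-group measurement divided by that of the vehicle-treated control group.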

[1] abbreviates: dose: 100.0 mg/kg/injection, schedule: Q04DX003 (ip), vehicle: saline with Tween-80.
[2] abbreviates: dose: 200.0 mg/kg/injection, schedule: Q04DX003 (ip), vehicle: saline with Tween-80.
Setting [3] is: dose: 50.0 mg/kg/injection, schedule: Q01DX005 (ip), vehicle: Klucel (hydroxypropylcellulose) (HPC).
Setting [4] is: dose: 100.0 mg/kg/injection, schedule: Q01DX005 (ip), vehicle: Klucel (hydroxypropylcellulose) (HPC).
Setting [5] is: dose: 200.0 mg/kg/injection, schedule: Q01DX005 (ip), vehicle: Klucel (hydroxypropylcellulose) (HPC).
[6] abbreviates: dose: 400.0 mg/kg/injection, schedule: Q04DX003 (ip), vehicle: saline with Tween-80.
Setting [7] is: dose: 50.0 mg/kg/injection, schedule: Q01DX009 (ip), vehicle: saline with Tween-80.
Setting [8] is: dose: 100.0 mg/kg/injection, schedule: Q01DX009 (ip), vehicle: saline with Tween-80.
The mark [9] stands for this setting: dose: 50.0 mg/kg/injection, schedule: Q01DX005 (ip), vehicle: saline with Tween-80.
[10] abbreviates: dose: 100.0 mg/kg/injection, schedule: Q01DX005 (ip), vehicle: saline with Tween-80.
Setting [11] is: dose: 200.0 mg/kg/injection, schedule: Q01DX005 (ip), vehicle: saline with Tween-80.
Where [12] appears, read: dose: 200.0 mg/kg/injection, schedule: Q01DX009 (ip), vehicle: saline with Tween-80.

“And” between values parts separate entries of the source, which are not always exact repeats. Equal values may be shown once. Toxic doses and inconclusive results are not listed.

For `c1ccc([P+](CC[P+](c2ccccc2)(c2ccccc2)c2ccccc2)(c2ccccc2)c2ccccc2)cc1`, the T/C runs as follows: (dose: 0.78 mg/kg/injection, schedule: Q01DX009 (ip), vehicle: saline) 105 % of control; (dose: 1.56 mg/kg/injection, schedule: Q01DX009 (ip), vehicle: saline) 103 % of control.
For `CN=C1c2ccccc2C2(c3ccccc3)C1N2C` (stereo not drawn), the T/C reads like this: under setting [1], 104 % of control; under setting [2], 100 % of control.
For `O=C(NC(Cc1ccc(I)cc1)C(=O)O)c1ccc(I)cc1` (stereo not drawn), the T/C is, setting by setting: under setting [3], 96 % of control; under setting [4], 104 % of control; under setting [5], 104 % of control.
On to `O=[N+]([O-])c1cnn(Cn2cc([N+](=O)[O-])cn2)c1`, for which the T/C by setting is: under setting [1], 109 % of control; under setting [2], 116 % of control; under setting [6], 120 % of control.
On to `C[n+]1ccc(CC(Cc2cc[n+](C)cc2)c2ccc(Br)cc2)cc1`, for which the T/C reads like this: (dose: 6.25 mg/kg/injection, schedule: Q01DX009 (ip), vehicle: Klucel (hydroxypropylcellulose) (HPC)) 110 % of control; (dose: 12.5 mg/kg/injection, schedule: Q01DX009 (ip), vehicle: Klucel (hydroxypropylcellulose) (HPC)) 110 % of control; (dose: 25.0 mg/kg/injection, schedule: Q01DX009 (ip), vehicle: Klucel (hydroxypropylcellulose) (HPC)) 108 % of control.
Consider `CCOC1N(c2ccc(Cl)cc2)CN(C)CC1(C)C` (stereo not drawn), for which the T/C under setting [7] was 117 % of control and the T/C under setting [8] was 120 % of control.
Regarding `CC(C)CC1NC(=O)N(CCN(C)C)C1=O` (stereo not drawn), the T/C reads like this: under setting [9], 100 % of control; under setting [10], 106 % of control; under setting [11], 100 % of control.
Take `COC(=O)NCP(=O)(CNC(=O)OC)CNC(=O)OC`: the T/C is, setting by setting: (dose: 50.0 mg/kg/injection, schedule: Q01DX009 (ip), vehicle: Klucel (hydroxypropylcellulose) (HPC)) 100 % of control; (dose: 100.0 mg/kg/injection, schedule: Q01DX009 (ip), vehicle: Klucel (hydroxypropylcellulose) (HPC)) 98 % of control; (dose: 200.0 mg/kg/injection, schedule: Q01DX009 (ip), vehicle: Klucel (hydroxypropylcellulose) (HPC)) 100 % of control.
On to `N#CC(C#N)/C=C/[Se]c1ccccc1`, for which the T/C reads like this: (dose: 100.0 mg/kg/injection, schedule: Q04DX003 (ip), vehicle: saline) 104 % of control; (dose: 200.0 mg/kg/injection, schedule: Q04DX003 (ip), vehicle: saline) 98 % of control; (dose: 400.0 mg/kg/injection, schedule: Q04DX003 (ip), vehicle: saline) 109 % of control.
Turning to `CSC(=S)N(C)N`, the T/C by setting is: under setting [1], 111 % of control; under setting [2], 105 % of control; under setting [6], 100 % of control.
Regarding `c1c[nH]c(C23CC4CC(CC(C4)C2)C3)n1`, the T/C by setting is: (dose: 12.5 mg/kg/injection, schedule: Q01DX005 (ip), vehicle: saline with Tween-80) 100 % of control; (dose: 25.0 mg/kg/injection, schedule: Q01DX005 (ip), vehicle: saline with Tween-80) 100 % of control; under setting [9], 110 % of control and 94 % of control.
As for `COc1ccc2c(NCCCCCCNc3c4ccccc4nc4cc(OC)ccc34)c3ccccc3nc2c1`, the T/C (dose: 0.62 mg/kg/injection, schedule: Q## X009 (ip), vehicle: lactic acid) was 151 % of control; the T/C (dose: 0.63 mg/kg/injection, schedule: Q01DX009 (ip), vehicle: other) was 119 % of control; the T/C (dose: 1.25 mg/kg/injection, schedule: Q## X009 (ip), vehicle: lactic acid) was 170 % of control; the T/C (dose: 2.5 mg/kg/injection, schedule: Q## X009 (ip), vehicle: lactic acid) is 170 % of control; the T/C (dose: 5.0 mg/kg/injection, schedule: Q01DX009 (ip), vehicle: other) was 154 % of control; the T/C (dose: 5.0 mg/kg/injection, schedule: Q## X009 (ip), vehicle: lactic acid) was 164 % of control. For the same compound, the T/C (dose: 10.0 mg/kg/injection, schedule: Q01DX009 (ip), vehicle: other) was 110 % of control and the T/C (dose: 10.0 mg/kg/injection, schedule: Q## X009 (ip), vehicle: lactic acid) is 86 % of control.
Consider `O=S(CCCl)CCCl`, for which the T/C (dose: 6.25 mg/kg/injection, schedule: Q01DX001 (ip), vehicle: saline) is 117 % of control and the T/C (dose: 12.5 mg/kg/injection, schedule: Q01DX001 (ip), vehicle: saline) is 152 % of control.
Turning to `Cc1c2cc[n+]([O-])cc2c(C)c2c1oc1ccccc12`, the T/C by setting is: (dose: 25.0 mg/kg/injection, schedule: Q01DX009 (ip), vehicle: saline with Tween-80) 115 % of control; under setting [8], 154 % of control; under setting [12], 165 % of control and 173 % of control.
Regarding `CC1=CC2(CC(C)(C)C1)N(c1ccccc1)C(=O)C2(c1ccccc1)c1ccccc1` (stereo not drawn), the T/C under setting [3] was 91 % of control, the T/C under setting [4] was 91 % of control and the T/C under setting [5] was 87 % of control.
For `CC1=NN(C(=O)NS(=O)(=O)c2ccc(CCNC(=O)c3nccnc3N)cc2)C(C)(C)C1`, the T/C reads like this: under setting [9], 102 % of control; under setting [10], 105 % of control; under setting [11], 102 % of control.
Turning to `O=C1C2CC=C3CCCC3C2C(=O)C2CC=C3CCCC3C12` (stereo not drawn), the T/C reads like this: (dose: 7.5 mg/kg/injection, schedule: Q01DX009 (ip), vehicle: saline with Tween-80) 105 % of control; (dose: 15.0 mg/kg/injection, schedule: Q01DX009 (ip), vehicle: saline with Tween-80) 102 % of control; (dose: 30.0 mg/kg/injection, schedule: Q01DX009 (ip), vehicle: saline with Tween-80) 106 % of control.
As for `Cc1[nH]c(C)c2ccc(=O)ccc12`, the T/C (dose: 30.0 mg/kg/injection, schedule: Q01DX005 (ip), vehicle: suspension in saline) was 101 % of control; the T/C (dose: 60.0 mg/kg/injection, schedule: Q01DX005 (ip), vehicle: suspension in saline) is 94 % of control and 97 % of control; the T/C (dose: 120.0 mg/kg/injection, schedule: Q01DX005 (ip), vehicle: suspension in saline) is 88 % of control; the T/C (dose: 240.0 mg/kg/injection, schedule: Q01DX005 (ip), vehicle: suspension in saline) is 93 % of control.
In the case of `COc1ccc(/C=N/N=c2/sc3ccccc3n2CC(=O)O)cc1`, the T/C by setting is: (dose: 100.0 mg/kg/injection, schedule: Q01DX001 (ip), vehicle: saline with Tween-80) 108 % of control; (dose: 200.0 mg/kg/injection, schedule: Q01DX001 (ip), vehicle: saline with Tween-80) 87 % of control.
`CCN1C[C@@]2(C)CCC(OC)C34[C@H]2[C@@H](OC(C)=O)C2(OCO[C@]25C[C@@H](OC)C2C[C@@]3(O)[C@H]5C2O)[C@@H]14` (stereo partly drawn): the T/C was 100 % of control (dose: 4.0 mg/kg/injection, schedule: Q01DX005 (ip), vehicle: saline with Tween-80); 99 % of control (dose: 8.0 mg/kg/injection, schedule: Q01DX005 (ip), vehicle: saline with Tween-80); 97 % of control (dose: 16.0 mg/kg/injection, schedule: Q01DX005 (ip), vehicle: saline with Tween-80); 107 % of control (dose: 32.0 mg/kg/injection, schedule: Q01DX005 (ip), vehicle: saline with Tween-80); 108 % of control (dose: 64.0 mg/kg/injection, schedule: Q01DX005 (ip), vehicle: saline with Tween-80).
On to `C[Si](C)(C)n1nnn(-c2ccccc2)c1=O`, for which the T/C reads like this: under setting [7], 99 % of control and 116 % of control; under setting [8], 112 % of control; under setting [12], 106 % of control.
On to `O=[N+]([O-])c1cnc(-c2ccc(F)cc2)n1CCO`, for which the T/C is, setting by setting: under setting [7], 100 % of control; under setting [8], 105 % of control; under setting [12], 112 % of control.
In the case of `NCCCCCCCC(=O)NCCCCCCCC(=O)NCCCCCCCC(=O)NCCCCCCCC(=O)NN`, the T/C runs as follows: under setting [9], 100 % of control; under setting [10], 100 % of control; under setting [11], 91 % of control.
Consider `CC(C)(C)SCC(NC(=O)OCC1c2ccccc2-c2ccccc21)C(=O)O` (stereo not drawn), for which the T/C under setting [3] is 100 % of control and the T/C under setting [4] is 100 % of control.
`CCOC(=O)N/N=C(\C)c1nc2ccccc2[nH]1`: the T/C reads like this: (dose: 15.0 mg/kg/injection, schedule: Q01DX005 (ip), vehicle: saline with Tween-80) 106 % of control; (dose: 30.0 mg/kg/injection, schedule: Q01DX005 (ip), vehicle: saline with Tween-80) 108 % of control; (dose: 60.0 mg/kg/injection, schedule: Q01DX005 (ip), vehicle: Klucel (hydroxypropylcellulose) (HPC)) 100 % of control; (dose: 60.0 mg/kg/injection, schedule: Q01DX005 (ip), vehicle: saline with Tween-80) 101 % of control.
